These are literature values, as cited in patent US20190328710A1, “SYNERGISTIC COMPOSITION FOR INHIBITING ADVANCED GLYCATION END PRODUCT CROSSLINKING” (H2 Water Technologies Ltd., priority 2018, published 2019).

The subject of the data set is patients with cataracts. The note with it: 96-patient trial, 6-month trial period.

`NCCC(=O)N[C@@H](Cc1cnc[nH]1)C(=O)O` [L-Carnosine]: where the note is “advanced senile cataracts”, the “success rate in advanced senile cataracts” value is 80%. In addition, for the setting “mild to moderate cataracts”, the “success rate in patients with mild to moderate cataracts” value was 100%.
